Values after ≈ are worked out from the molar mass of the structure shown.
Key:
Escherichia coli [1] = test: Antibacterial activity against azide-resistant Escherichia coli J53 SXT1 transconjugant with qnrVC3 gene expressing Vibrio cholerae 59 strain; assay type: functional
Escherichia coli [2] = test: Antibacterial activity against azide-resistant Escherichia coli J53 SXT2 transconjugant with qnrVC3 gene expressing Vibrio cholerae 59 strain
Escherichia coli [3] = test: Antibacterial activity against azide-resistant Escherichia coli J53 TET1 transconjugant with qnrVC3 gene expressing Vibrio cholerae 59 strain; assay type: functional
Escherichia coli [4] = test: Antibacterial activity against azide-resistant Escherichia coli J53 TET2 transconjugant with qnrVC3 gene expressing Vibrio cholerae 59 strain
Escherichia coli [5] = test: Antibacterial activity against azide-resistant Escherichia coli J53 SXT13-1 transconjugant with qnrVC3 gene expressing Vibrio cholerae 13 strain; assay type: functional
Escherichia coli [6] = test: Antibacterial activity against azide-resistant Escherichia coli J53 containing plasmid pQE60; assay type: functional
Escherichia coli [7] = test: Antibacterial activity against azide resistant Escherichia coli J53 transformed with pQE60-qnrVC3 gene Vibrio cholerae 59 strain; assay type: functional

Row | Compound | MIC (Escherichia coli [1]) | MIC (Escherichia coli [2]) | MIC (Escherichia coli [3]) | MIC (Escherichia coli [4]) | MIC (Escherichia coli [5]) | MIC (Escherichia coli [6]) | MIC (Escherichia coli [7])
1 | CN[C@@H]1[C@H](O[C@H]2[C@H](O[C@H]3[C@H](O)[C@@H](O)[C@H](N=C(N)N)[C@@H](O)[C@@H]3N=C(N)N)O[C@@H](C)[C@]2(O)C=O)O[C@@H](CO)[C@H](O)[C@H]1O [STREPTOMYCIN] | > 192 µg/mL | > 192 µg/mL | > 192 µg/mL | > 192 µg/mL | – | – | –
2 | CN(C)[C@@H]1C(O)=C(C(N)=O)C(=O)[C@@]2(O)C(O)=C3C(=O)c4c(O)cccc4[C@@](C)(O)[C@H]3C[C@@H]12 [TETRACYCLINE] | 64 µg/mL (≈ 144 µM) | 64 µg/mL (≈ 144 µM) | 64 µg/mL (≈ 144 µM) | 64 µg/mL (≈ 144 µM) | 1.5 µg/mL (≈ 3.38 µM) | – | –
3 | COc1cc(Cc2cnc(N)nc2N)cc(OC)c1OC [TRIMETHOPRIM] | > 32 µg/mL | > 32 µg/mL | > 32 µg/mL | > 32 µg/mL | – | – | –
4 | C[C@H]1COc2c(N3CCN(C)CC3)c(F)cc3c(=O)c(C(=O)O)cn1c23.C[C@H]1COc2c(N3CCN(C)CC3)c(F)cc3c(=O)c(C(=O)O)cn1c23.O [LEVOFLOXACIN] | 0.19 µg/mL | 0.032 µg/mL | 0.032 µg/mL | 0.125 µg/mL | – | 0.032 µg/mL | 0.19 µg/mL
5 | CC1(C)S[C@@H]2[C@H](NC(=O)[C@H](N)c3ccccc3)C(=O)N2[C@H]1C(=O)O [AMPICILLIN] | 4 µg/mL (≈ 11.4 µM) | 4 µg/mL (≈ 11.4 µM) | 6 µg/mL (≈ 17.2 µM) | 4 µg/mL (≈ 11.4 µM) | – | – | –
6 | GENTAMICIN | 0.75 µg/mL | – | 0.75 µg/mL | – | – | – | –
7 | O=C(O)c1cn(C2CC2)c2cc(N3CCNCC3)c(F)cc2c1=O [CIPROFLOXACIN] | 0.047 µg/mL (≈ 0.142 µM) | – | – | 0.064 µg/mL (≈ 0.193 µM) | – | – | –
8 | CCn1cc(C(=O)O)c(=O)c2ccc(C)nc21 [NALIDIXIC ACID] | 3 µg/mL (≈ 12.9 µM) | 3 µg/mL (≈ 12.9 µM) | 4 µg/mL (≈ 17.2 µM) | 4 µg/mL (≈ 17.2 µM) | – | – | –
